# Experiments:
# [1] = system: EA.hy926 endothelial cells; experiment: Conversion of BH4 derivatives into BH4 by endothelial cells (intracellular biopterin content by HPLC); assay type: cell-based; conditions: 100 μM, FIG. 1
# Procedure: Endothelial cells (HUVEC and ERhy926) were cultivated in the appropriate culture medium and treated with sepiapterin and BH4 (100 μM each) respectively, for the indicated time periods. After excess wash steps using PBS the cells were lysed and the biopterin content was analysed by reversed phase HPLC with fluorescence detection (excitation: 350 nm, emission: 450 nm) after iodine reduction and semi-purification on Dowex beads as described in detail in Hesslinger et al., J. Biol. Chem. 273, 21616-21622, 1998.
# [2] = molecular target: T1, human iNOS (Homo sapiens, UniProt P35228); experiment: Promotion of NO synthesis in DAHP-pretreated HEK293iNOS cells (Griess assay); assay type: cell-based; conditions: HEK293iNOS cells pretreated with 10 mM DAHP, increasing concentrations, concentration-dependent, FIG. 2
# Procedure: HEK293 cells stably transfected with human iNOS under the transcriptional control of a PonA-inducible promoter were treated with 10 mM DAHP (diaminohydroxypyridin), an inhibitor of GTP cyclohydrolase (Xie et al., J. Biol. Chem. 273, 21091-21098, 1998), to block endogenous production of tetrahydrobiopterin. After stimulating iNOS expression with […] PonA for 24 h and concomitant treatment with 10 mM DAHP increasing concentrations of BH4 or sepiapterin were added and the NO production was measured using the Griess assay to analyse the stable NO products nitrite and nitrate. Nitrate was reduced to nitrite by nitrate reductase and its absorption was determined at 544 nm in a Wallac spectrophotometer.
# [3] = molecular target: T1, human iNOS; experiment: Superoxide production from recombinant BH4-free and arginine-free human iNOS (ESR, CPH spin trap); assay type: biochemical; parameters: made in house; host or cells: E. coli; conditions: incubation with arginine alone, FIG. 3b
# Procedure: Recombinant human iNOS was overexpressed in E. coli and purified using an ADP sepharose column and subsequently a Superdex column to yield BH4free and arginine-free iNOS. 1 μg of human iNOS was incubated together with 200 μM NADPH and 1 mM CPH. After incubation at 37° C. for 60 min the superoxide produced was measured as stable CPH radical in a Bruker e-scan device via electron spin resonance spectroscopy (ESR).
Structure (SMILES),conversion of exogenous compound into intracellular biopterin [1],"NO synthesis from iNOS (nitrite/nitrate, Griess assay) [2]",reduction of superoxide production [3]
C[C@H](O)C(=O)C1=Nc2c(nc(N)[nH]c2=O)NC1 [sepiapterin],effectively converted into intracellular biopterin within a few minutes,promoted NO synthesis,–
N=C(N)NCCC[C@H](N)C(=O)O [arginine],–,–,50%

# From US20070049599A1, “Use of bh4 for the treatment of respiratory diseases” (Altana Pharma AG, priority 2003, published 2007)
